Key:
[1] = tested on: Shrimp (L. vannamei) larvae; assay: Acute toxicity assay in shrimp larvae; format: in vivo, Litopenaeus vannamei; conditions: after 72 h of exposure
Method: Shrimp (L. vannamei) larvae (total length: 0.5 ± 0.04 cm, body weight: 4.2 ± 0.4 mg, mean ± SD) were provided by Zhejiang Mariculture Research Institute Qingjiang Station (Wenzhou, China). The larvae were maintained in a culture pond at 28 °C, fed four times a day with commercial feed pellets, and collected randomly for PCR testing to verify the WSSV-free status prior to the trial.
Acute toxicity of the coumarin derivatives was investigated by exposing larvae to a range of compound concentrations, from 0.1 mg/L to 100 mg/L of coumarin derivatives, where the dose setting was based on the data from preliminary tests in our laboratory. A DMSO-control (2%, v/v, the highest percentage of DMSO in treatments) served as the control. During the experiment, every 20 larvae were moved into six-well plates filled with 6 mL/per well freshly prepared test solutions for a 72-h incubation at 28 °C with a natural photoperiod. […] To avoid deterioration of water quality, dead shrimps were immediately removed at the point of observation. Three replicate experiments were performed.
Compound response curves were represented by a logistic sigmoidal function with a maximal effect level (Amax) and Hill coefficient representing the sigmoidal transition (Origin 8.1; http://www.originlab.com, accessed on 25 March 2021). Statistical analyses were performed using SPSS (version 18.0) statistical software (SPSS Inc., Chicago, IL, USA). The LC50 and EC50 values with 95% CIs were calculated using probit analysis. Virus titers were log10-transformed prior to statistical analyses. Unpaired Student’s t-tests were used to compare coumarin-treated samples and negative-control DMSO samples for determining significance and data are presented as mean values ± SD.

[2] = Solubility / precipitation in aquacultural water; format: physicochemical
Method: Prior to evaluation of the anti-WSSV activity of coumarins, the safety doses for larvae needed to be determined. […] In contrast, the electron-withdrawing group was more toxic than the electron-donating group, with the LC50 of A5‒A8 being <5 mg/L at 72 h. […] Based on preliminary analysis of the structure-activity relationship (SAR) of similar spatial structures with different substituents of electron-donating and electron-withdrawing groups to coumarins A1, B1, and C1, we considered that […] of compounds; this provides a basis for further research.
All conventional reagents and solvents are purchased directly from commercial companies and no further purification is required. Organic solvents were purchased from Sinopharm chemical reagent Co., Ltd. and purified by distillation and moisture was excluded from the glass apparatus using CaCl2 drying tubes. Throughout this study, silica gel H (200–300 mesh; Qingdao Marine Chemical Factory, Qingdao, China) was used for the column chromatography. For thin layer chromatographic (TLC) plates, Silica gel (GF254) (Qingdao Marine Chemical Factory, Qingdao, China) were used for thin layer chromatographic (TLC) analysis, and all of the spots and bands were detected by UV irradiation (254, 365 nm). The intermediates and products were characterized by electrospray ionization mass spectrometry (TripleTOF5600þ; AB SCIEX Pte. Ltd., Boston, MA, USA), ^1H NMR and ^13C NMR (Bruker AM500 spectrometer; Bruker Corporation, Berne, Switzerland). The derivatives were dissolved in 100% dimethyl sulfoxide (DMSO; Beyotime Biotechnology, Haimen, China), stored at 4 °C prior to antiviral evaluation, and used within 6 months. For solubility, the stock solutions, at a concentration of 50 mg/mL, were sonicated for approximately 10 min to ensure that the derivatives were fully dissolved and mixed.

[3] = tested on: white spot syndrome virus (WSSV); assay: Anti-WSSV activity in shrimp larvae, co-incubation, copy number of viral genome by RT-qPCR; format: in vivo, Litopenaeus vannamei
[4] = tested on: white spot syndrome virus (WSSV); conditions: buffer; cited from earlier work
[5] = test range 0.4~100 mg/L, aquacultural water, LC50 NONE

For `N#CC1=C(N)Oc2c(c(=O)oc3ccccc23)C1c1ccc([N+](=O)[O-])cc1` (centres unmarked) [C8], the “signs of toxicity at the saturation concentration” value [1] was “No signs of toxicity were observed”, the “solubility in aquacultural water” value [2] was “insoluble” and the “lowest precipitation concentration” value [2, 5] was “NONE (16) mg/L”. The “lowest precipitation concentration (bracketed value in LC50 48 h column)” value [2, 5] was “NONE (16) mg/L”, the “lowest precipitation concentration (bracketed value in LC50 72 h column)” value [2, 5] was “NONE (16) mg/L” and the EC50 ([3]; Whispovirus xiabaidian, 72 h, read-out: EC50 (mg/L; 95% CI), median effective concentration, WSSV-infected larvae, copy number of viral genome, 72 h, 95% CI in brackets) was 6.6 mg/L. The “inhibitory efficiency on WSSV replication” value ([3]; six-point dose-response, viral genome copy number in larvae) was “exceeded 90%” and the “half-life in aquacultural and sterilized deionized water” value [4] was 24 to 48 h.
